Where two headings read alike, the source gives them in different places.

One data set relates to HIV-IIIb IN T174I DE. As to the kind of experiment: Antiviral assay in MT4 cells, HIV-IIIb IN T174I DE virus (from dose escalation passaging). Particulars: Human immunodeficiency virus 1, IIIB, MT4, 120 h, read-out: T174I DE EC50, MT4 cells, HIV-IIIb IN T174I DE (dose escalation), 5 days, CellTiter-Glo. The class given is cell-based, HIV-1. The procedure, abridged:
(§1)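 MT4 cells were pre-infected 3 h at 37 °C with HIV-IIIb (0.004 m.o.i.): wildtype, or IN T174I virus from breakthrough or from dose-escalation passaging. Cells (2000/well) were exposed to 10-point 3-fold compound dilutions in quadruplicate for 5 days at 37 °C. EC50 was the concentration giving 50% decrease in CellTiter-Glo luminescence.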
(In general: Cellular ATP, detected with luciferase, serves as a proxy for viable cell number.)

A further data set relates to HIV-IIIb (wildtype). The experiment in a line: Antiviral assay in MT4 cells, HIV-IIIb wildtype. The data set is classed as cell-based, HIV-1. The following applies: read-out: WT EC50. The procedure, abridged: as §1
Data set [1] can be described thus: Hum MS stability (human microsomal stability half-life). Particulars: human microsomes.
The subject of the next data set is HIV-IIIb IN T174I BT. The experiment in a line: Antiviral assay in MT4 cells, HIV-IIIb IN T174I BT virus (from viral breakthrough). The class given is cell-based, HIV-1. The following applies: Human immunodeficiency virus 1, IIIB, MT4, 120 h, read-out: T174I BT EC50, MT4 cells, HIV-IIIb IN T174I BT (viral breakthrough), 5 days, CellTiter-Glo. The procedure, abridged:
as §1

The mark [2] stands for this setting: Human immunodeficiency virus 1, IIIB, MT4, 120 h.

The term EC50 denotes the concentration giving half of the maximal effect. What is called half-life is how long it takes for the measured level to halve. A higher half-life goes with slow loss. On to `Cc1cc2nc(-c3ccc4c(c3)c(C3CCN(C5CCOC5)CC3)nn4C)sc2c(-c2ccc(Cl)cc2)c1[C@H](OC(C)(C)C)C(=O)O` (stereo in doubt) [Compound 27, (S)-2-(tert-butoxy)-2-(7-(4-chlorophenyl)-5-methyl-2-(1-methyl-3-(1-((R)-tetrahydrofuran-3-yl)piperidin-4-yl)-1H-indazol-5-yl)benzo[d]thiazol-6-yl)acetic Acid], for which the EC50 was determined as 245 nM in the data set with HIV-IIIb IN T174I DE, 4 nM in the data set on HIV-IIIb (wildtype) (setting [2]) and 154 nM in the data set with HIV-IIIb IN T174I BT. Moreover, the half-life in data set [1] amounted to 4.17 h.
The matching figures for `Cc1cc2nc(-c3ccc4c(c3)c(C3CCN([C@H]5CCN(C)C5)CC3)nn4C)sc2c(-c2ccc(Cl)cc2)c1[C@H](OC(C)(C)C)C(=O)O` [Compound 163, (S)-2-(tert-butoxy)-2-(7-(4-chloro-phenyl)-5-methyl-2-(1-methyl-3-(1-((S)-1-methyl-pyrrolidin-3-yl)piperidin-4-yl)-1H-indazol-5-yl)benzo[d]thiazol-6-yl)acetic acid]: 324 nM, 20 nM, 204 nM and 2.12 h.
As to `Cc1cc2nc(-c3ccc4c(n3)c(C3CCN(C5CN(C)C5)CC3)nn4C)sc2c(-c2ccc(Cl)cc2)c1[C@H](OC(C)(C)C)C(=O)O` [Compound 184, (S)-2-(tert-butoxy)-2-(7-(4-chloro-phenyl)-5-methyl-2-(1-methyl-3-(1-(1-methylazetidin-3-yl)piperidin-4-yl)-1H-pyrazolo [4,3-b]pyridin-5-yl)benzo[d]thiazol-6-yl) acetic acid], the concentration for a half-maximal effect (EC50) came to 218 nM in the data set with HIV-IIIb IN T174I DE, 4 nM in the data set with HIV-IIIb (wildtype) (setting [2]) and 103 nM in the data set with HIV-IIIb IN T174I BT. The half-life in data set [1] came out at 0.767 h.
The matching figures for `Cc1cc2nc(-c3ccc4c(n3)c(N3CCN(C5COC5)CC3)nn4C)sc2c(-c2ccc(Cl)cc2)c1[C@H](OC(C)(C)C)C(=O)O` [Compound 15, (S)-2-(tert-butoxy)-2-(7-(4-chlorophenyl)-5-methyl-2-(1-methyl-3-(4-(oxetan-3-yl)piperazin-1-yl)-1H-pyrazolo[4,3-b]pyridin-5-yl)benzo[d]thiazol-6-yl)acetic Acid]: 3070 nM, 4 nM, 657 nM and 2.83 h.
As to `Cc1cc2nc(-c3ccc4c(c3)c(C3CCN(C5COC5)CC3)nn4C)sc2c(-c2ccc(Cl)cc2)c1[C@H](OC(C)(C)C)C(=O)O` [Compound 1, (S)-2-(tert-butoxy)-2-(7-(4-chlorophenyl)-5-methyl-2-(1-methyl-3-(1-(oxetan-3-yl)piperidin-4-yl)-1H-indazol-5-yl)benzo[d]thiazol-6-yl)acetic Acid], the EC50 turned out to be 315 nM in the data set with HIV-IIIb IN T174I DE; 5 nM with HIV-IIIb (wildtype) (Human immunodeficiency virus 1, 120 h, MT4 cells, HIV-IIIb wildtype, 5 days, CellTiter-Glo); 143 nM with HIV-IIIb IN T174I BT. Besides, the half-life in data set [1] worked out at 5.83 h.
As to `Cc1cc2nc(-c3ccc4c(c3)c(C3CCN(S(C)(=O)=O)CC3)nn4C)sc2c(-c2ccc(Cl)cc2)c1[C@H](OC(C)(C)C)C(=O)O` [Compound 25, (S)-2-(tert-butoxy)-2-(7-(4-chlorophenyl)-5-methyl-2-(1-methyl-3-(1-(methylsulfonyl)piperidin-4-yl)-1H-indazol-5-yl)benzo[d]thiazol-6-yl)acetic acid], the concentration giving a half-maximal response (EC50) with HIV-IIIb IN T174I DE came out at 806 nM; in the data set on HIV-IIIb (wildtype) (setting [2]), 10 nM; in the data set with HIV-IIIb IN T174I BT, 404 nM. The same molecule showed a half-life in data set [1] of 4.25 h.
Regarding `Cc1cc2nc(-c3ccc4c(c3)c(C3CCN(C5CC(O)C5)CC3)nn4C)sc2c(-c2ccc(Cl)cc2)c1[C@H](OC(C)(C)C)C(=O)O` (stereo partly drawn) [Compound 156, (S)-2-(tert-butoxy)-2-(7-(4-chloro-phenyl)-2-(3-(1-((1s,3s)-3-hydroxy-cyclobutyl)piperidin-4-yl)-1-methyl-1H-indazol-5-yl)-5-methylbenzo[d]thiazol-6-yl) acetic acid], the EC50 in the data set with HIV-IIIb IN T174I DE turned out to be 197 nM; in the data set with HIV-IIIb (wildtype) (setting [2]) it was 11 nM; in the data set with HIV-IIIb IN T174I BT, 126 nM. In data set [1], this molecule came in with a half-life of 4.95 h.
In the same order, the values of `Cc1cc2nc(-c3ccc4c(c3)c(C3CCN(C(=O)[C@H]5CCCO5)CC3)nn4C)sc2c(-c2ccc(Cl)cc2)c1[C@H](OC(C)(C)C)C(=O)O` [Compound 9, (S)-2-(tert-butoxy)-2-(7-(4-chlorophenyl)-5-methyl-2-(1-methyl-3-(1-((R)-tetrahydrofuran-2-carbonyl)piperidin-4-yl)-1H-indazol-5-yl)benzo[d]thiazol-6-yl)acetic Acid] are 511 nM, 9 nM, 237 nM and 4.17 h.
The matching figures for `CC(=O)N1CC[C@H](N2CCC(c3nn(C)c4ccc(-c5nc6cc(C)c([C@H](OC(C)(C)C)C(=O)O)c(-c7ccc(Cl)cc7)c6s5)nc34)CC2)C1` [Compound 170, (S)-2-(2-(3-(1-((S)-1-acetyl-pyrrolidin-3-yl)piperidin-4-yl)-1-methyl-1H-pyrazolo[4,3-b]pyridin-5-yl)-7-(4-chlorophenyl)-5-methylbenzo [d]thiazol-6-yl)-2-(tert-butoxy) acetic acid]: 112 nM, 2 nM, 57 nM and 0.533 h.
The matching figures for `COCCN1C(=O)N(c2nn(C)c3ccc(-c4nc5cc(C)c([C@H](OC(C)(C)C)C(=O)O)c(-c6ccc(Cl)cc6)c5s4)cc23)CC1(C)C` [Compound 123, (S)-2-(tert-butoxy)-2-(7-(4-chlorophenyl)-2-(3-(3-(2-methoxyethyl)-4,4-dimethyl-2-oxoimidazolidin-1-yl)-1-methyl-1H-indazol-5-yl)-5-methylbenzo[d]thiazol-6-yl)acetic acid]: 7090 nM, 11 nM, 1450 nM and 1.6 h.
In the case of `CC(=O)N1CC(N2CCC(c3nn(C4CC4)c4ccc(-c5nc6cc(C)c([C@H](OC(C)(C)C)C(=O)O)c(-c7ccc(Cl)cc7)c6s5)nc34)CC2)C1` [Compound 182, (S)-2-(2-(3-(1-(1-acetylazetidin-3-yl)piperidin-4-yl)-1-cyclopropyl-1H-pyrazolo[4,3-b]pyridin-5-yl)-7-(4-chlorophenyl)-5-methylbenzo [d]thiazol-6-yl)-2-(tert-butoxy) acetic acid], the concentration giving a half-maximal response (EC50) was 59 nM in the data set on HIV-IIIb IN T174I DE, 2 nM with HIV-IIIb (wildtype) (setting [2]) and 27 nM in the data set with HIV-IIIb IN T174I BT.
The matching figures for `CCN1CCC(c2nn(C)c3ccc(-c4nc5cc(C)c([C@H](OC(C)(C)C)C(=O)O)c(-c6ccc(Cl)cc6)c5s4)cc23)C1` (stereo partly drawn) [Compound 64, (2S)-2-(tert-butoxy)-2-(7-(4-chlorophenyl)-2-(3-(1-ethylpyrrolidin-3-yl)-1-methyl-1H-indazol-5-yl)-5-methylbenzo[d]thiazol-6-yl)acetic acid]: 2620 nM, 11 nM and 2840 nM.
The matching figures for `COC(=O)N1CC(N2CCC(c3c4nc(-c5nc6cc(C)c([C@H](OC(C)(C)C)C(=O)O)c(-c7ccc(Cl)cc7)c6s5)ccc4nn3C(F)F)CC2)C1` [Compound 190, (S)-2-(tert-butoxy)-2-(7-(4-chloro-phenyl)-2-(2-(difluoromethyl)-3-(1-(1-(methoxy-carbonyl)azetidin-3-yl)piperidin-4-yl)-2H-pyrazolo [4,3-b]pyridin-5-yl)-5-methylbenzo [d]thiazol-6-yl) acetic acid]: 2750 nM, 6 nM and 1760 nM.
